Target: unphosphorylated-BTK kinase domain (UP-BTK), GST-tagged human BTK (389-659aa) (Homo sapiens (Human), UniProt Q06187)
Assay: BTK Kinase Lanthascreen Binding Assay
Conditions: Lanthascreen binding, 60 minutes incubation; pIC50 = negative log of the IC50 in molar
Description: BTK Kinase Lanthascreen Binding Assay:
A BTK kinase lanthascreen binding assay monitors compound binding to unphosphorylated-BTK kinase domain (UP-BTK), by competing with a fluorescent labeled tracer. […] Data were analyzed using Xlfit™ version 5.3 from ID Business Solutions (Guildford), Microsoft Excel add-in. pIC50 refers to the negative log of the IC50 in molar.

unphosphorylated-BTK kinase domain (UP-BTK), GST-tagged human BTK (389-659aa), sequence (Q06187 389-659): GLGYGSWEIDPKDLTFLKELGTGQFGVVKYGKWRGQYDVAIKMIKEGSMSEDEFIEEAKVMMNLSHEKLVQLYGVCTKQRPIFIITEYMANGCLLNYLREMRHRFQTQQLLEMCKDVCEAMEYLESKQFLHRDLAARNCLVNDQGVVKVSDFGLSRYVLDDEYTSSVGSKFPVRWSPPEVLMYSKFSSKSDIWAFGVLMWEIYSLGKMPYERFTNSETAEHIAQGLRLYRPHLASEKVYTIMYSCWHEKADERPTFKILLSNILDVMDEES

Row | BTK_I_binding pIC50 | Compound
1 | 7.09 | C=CC(=O)N[C@H]1CCC[C@H]1NC(=O)c1sc2nccc3c2c1NC(=O)N3c1ccc(O[C@@H]2CCOC2)cc1C [Example 386, N-((1R,2S)-2-Acrylamidocyclopentyl)-5-(2-methyl-4-(((R)-tetrahydrofuran-3-yl)oxy)phenyl)-4-oxo-4,5-dihydro-3H-1-thia-3,5,8-triazaacenaphthylene-2-carboxamide]
2 | 8.04 | C=CC(=O)N[C@H]1CCC[C@H]1NC(=O)c1sc2nccc3c2c1NC(=O)N3c1cnc(Oc2ccccc2)nc1 [Example 310, N-((1R,2S)-2-Acrylamidocyclopentyl)-4-oxo-5-(2-phenoxypyrimidin-5-yl)-4,5-dihydro-3H-1-thia-3,5,8-triazaacenaphthylene-2-carboxamide]
3 | 7.14 | C=CC(=O)N[C@@H]1CCC[C@H]1NC(=O)c1sc2nccc3c2c1NC(=O)N3c1cnc(Oc2ccccc2)nc1 [Example 314, N-((1R,2R)-2-Acrylamidocyclopentyl)-4-oxo-5-(2-phenoxypyrimidin-5-yl)-4,5-dihydro-3H-1-thia-3,5,8-triazaacenaphthylene-2-carboxamide]
4 | 6.20 | C=CC(=O)N[C@H]1CCC[C@H]1NC(=O)c1sc2nccc3c2c1NC(=O)N3c1ccc(Oc2cccnn2)cn1 [Example 476, N-((1R,2S)-2-Acrylamidocyclopentyl)-4-oxo-5-(5-(pyridazin-3-yloxy)pyridin-2-yl)-4,5-dihydro-3H-1-thia-3,5,8-triazaacenaphthylene-2-carboxamide]
5 | 6.12 | C=CC(=O)N[C@@H]1CCC[C@H]1NC(=O)c1sc2nccc3c2c1NC(=O)N3c1ccnc(-c2ccccn2)c1 [Example 342, 5-([2,2′-Bipyridin]-4-yl)-N-((1R,2R)-2-acrylamidocyclopentyl)-4-oxo-4,5-dihydro-3H-1-thia-3,5,8-triazaacenaphthylene-2-carboxamide]
6 | 6.67 | C=CC(=O)N[C@H]1CCC[C@H]1NC(=O)c1sc2nccc3c2c1NC(=O)N3c1ccc(Oc2cccnn2)cc1C (single isomer, unassigned) [Example 425, N-((1R,2S)-2-Acrylamidocyclopentyl)-5-(*R)-(2-methyl-4-(pyridazin-3-yloxy)phenyl)-4-oxo-4,5-dihydro-3H-1-thia-3,5,8-triazaacenaphthylene-2-carboxamide]
7 | 7.68 | C=CC(=O)N[C@@H]1CCC[C@H]1NC(=O)c1sc2nccc3c2c1NC(=O)N3c1cnc(CC(C)C)cc1C (single isomer, unassigned) [Example 382, N-((1R,2R)-2-Acrylamidocyclopentyl)-5-(*S)-(6-isobutyl-4-methylpyridin-3-yl)-4-oxo-4,5-dihydro-3H-1-thia-3,5,8-triazaacenaphthylene-2-carboxamide]

Row | Compound | BTK_I_binding pIC50
8 | C=CC(=O)N[C@@H]1CCCC[C@H]1NC(=O)c1sc2nccc3c2c1NC(=O)N3c1cnc(CC(C)C)cc1C (single isomer, unassigned) [Example 404, N-((1R,2R)-2-Acrylamidocyclohexyl)-5-(*S)-(6-isobutyl-4-methylpyridin-3-yl)-4-oxo-4,5-dihydro-3H-1-thia-3,5,8-triazaacenaphthylene-2-carboxamide] | 6.21

Same assay, conditions: compound, 50 nM Tracer 236, 2 nM anti-GST antibody, 60 minutes; pIC50 = negative log of the IC50 in molar

Row | BTK_I_binding pIC50 | Compound
9 | 7.44 | Cc1cc(Oc2ccccc2)ccc1N1C(=O)Nc2c(C(=O)N[C@@H]3CC[C@@H](NC(=O)CN(C)C)C3)sc3nccc1c23 [Example 217, N-((1R,3R)-3-(2-(Dimethylamino)acetamido)cyclopentyl)-5-(2-methyl-4-phenoxyphenyl)-4-oxo-4,5-dihydro-3H-1-thia-3,5,8-triazaacenaphthylene-2-carboxamide]
10 | 7.42 | C=CC(=O)N[C@H]1CC[C@@H](NC(=O)c2sc3nccc4c3c2NC(=O)N4c2ccc(Oc3ccccc3)cc2C)CC1 [Example 3, N-((1S,4S)-4-Acrylamidocyclohexyl)-5-(2-methyl-4-phenoxyphenyl)-4-oxo-4,5-dihydro-3H-1-thia-3,5,8-triazaacenaphthylene-2-carboxamide]
11 | 7.02 | Cc1cc(Oc2ccccc2)ncc1N1C(=O)Nc2c(C(=O)N[C@@H]3CCC[C@@H]3N)sc3nccc1c23 (single isomer, unassigned) [Example 170, N-((1R,2S)-2-Aminocyclopentyl)-5-(*S)-(4-methyl-6-phenoxypyridin-3-yl)-4-oxo-4,5-dihydro-3H-1-thia-3,5,8-triazaacenaphthylene-2-carboxamide]
12 | 6.76 | C=CC(=O)N[C@@H]1CCCC[C@H]1NC(=O)c1sc2nccc3c2c1NC(=O)N3c1ccc(Oc2ccccc2)cn1 [Example 218, N-((1R,2R)-2-Acrylamidocyclohexyl)-4-oxo-5-(5-phenoxypyridin-2-yl)-4,5-dihydro-3H-1-thia-3,5,8-triazaacenaphthylene-2-carboxamide]
13 | 7.69 | Cc1cc(Oc2ccccc2)ccc1N1C(=O)Nc2c(C(=O)N[C@@H]3CCCC[C@@H]3N)sc3nccc1c23 (single isomer, unassigned) [Example 5, N-((1R,2S)-2-Aminocyclohexyl)-5-(*S)-(2-methyl-4-phenoxyphenyl)-4-oxo-4,5-dihydro-3H-1-thia-3,5,8-triazaacenaphthylene-2-carboxamide]
14 | 6.26 | CNCC(=O)N[C@@H]1CCC[C@@H]1NC(=O)c1sc2nccc3c2c1NC(=O)N3c1ccc(Oc2ccccc2)cc1C (single isomer, unassigned) [Example 156, 5-(*S)-(2-Methyl-4-phenoxyphenyl)-N-((1S,2R)-2-(2-(methylamino)acetamido)cyclopentyl)-4-oxo-4,5-dihydro-3H-1-thia-3,5,8-triazaacenaphthylene-2-carboxamide]
15 | 7.70 | N[C@H]1CCC[C@H]1NC(=O)c1sc2nccc3c2c1NC(=O)N3c1ccc(Oc2ccccc2)cc1 [Example 97, N-((1R,2S)-2-Aminocyclopentyl)-4-oxo-5-(4-phenoxyphenyl)-4,5-dihydro-3H-1-thia-3,5,8-triazaacenaphthylene-2-carboxamide]
16 | 7.98 | C=CC(=O)N[C@@H]1CC[C@H](NC(=O)c2sc3nccc4c3c2NC(=O)N4c2ccnc(-c3ccccc3)c2)C1 [Example 198, N-((1S,3R)-3-Acrylamidocyclopentyl)-4-oxo-5-(2-phenylpyridin-4-yl)-4,5-dihydro-3H-1-thia-3,5,8-triazaacenaphthylene-2-carboxamide]
17 | 6.75 | CNCC(=O)N[C@H]1CCC[C@H](NC(=O)c2sc3nccc4c3c2NC(=O)N4c2ccc(Oc3ccccc3)cc2C)C1 (relative stereo) [Example 250, 5-(*S)-(2-Methyl-4-phenoxyphenyl)-N-((1R,3S)-3-(2-(methylamino)acetamido)cyclohexyl)-4-oxo-4,5-dihydro-3H-1-thia-3,5,8-triazaacenaphthylene-2-carboxamide]
18 | 6.14 | CC(=O)N[C@H]1CC[C@@H](NC(=O)c2sc3nccc4c3c2NC(=O)N4c2ccc(Oc3ccccc3)cc2C)CC1 (single isomer, unassigned) [Example 95, N-((1S,4S)-4-Acetamidocyclohexyl)-5-(*R)-(2-methyl-4-phenoxyphenyl)-4-oxo-4,5-dihydro-3H-1-thia-3,5,8-triazaacenaphthylene-2-carboxamide]

Same assay, conditions: read-out: BTK_I_binding pIC50 (converted)

Row | Compound | IC50 [µM]
19 | C=CC(=O)N[C@H]1CCCC[C@H]1NC(=O)c1sc2nccc3c2c1NC(=O)N3c1cnc(OCC(C)C)cc1C (single isomer, unassigned) [Example 352, N-((1R,2S)-2-Acrylamidocyclohexyl)-5-(*R)-(6-isobutoxy-4-methylpyridin-3-yl)-4-oxo-4,5-dihydro-3H-1-thia-3,5,8-triazaacenaphthylene-2-carboxamide] | > 1
20 | N[C@@H]1CC[C@H](NC(=O)c2sc3nccc4c3c2NC(=O)N4c2ccc(Oc3ccccc3)nc2)C1 (racemic) [Example 289, racemic cis N-((1RS,3RS)-3-Aminocyclopentyl)-4-oxo-5-(6-phenoxypyridin-3-yl)-4,5-dihydro-3H-1-thia-3,5,8-triazaacenaphthylene-2-carboxamide] | 1.7
21 | N[C@H]1CCC[C@H]1NC(=O)c1sc2nccc3c2c1NC(=O)N3c1cccc(-c2ccccn2)c1 [Example 285, N-((1R,2S)-2-Aminocyclopentyl)-4-oxo-5-(3-(pyridin-2-yl)phenyl)-4,5-dihydro-3H-1-thia-3,5,8-triazaacenaphthylene-2-carboxamide] | > 1
22 | O=C(N[C@@H]1CCC[C@H]1O)c1sc2nccc3c2c1NC(=O)N3c1ccnc(-c2ccccc2)c1 [Example 268, N-((1R,2R)-2-Hydroxycyclopentyl)-4-oxo-5-(2-phenylpyridin-4-yl)-4,5-dihydro-3H-1-thia-3,5,8-triazaacenaphthylene-2-carboxamide] | 0.631
23 | CCC(=O)N[C@H]1CC[C@H](NC(=O)c2sc3nccc4c3c2NC(=O)N4c2ccc(Oc3ccccc3)nc2C)C1 (single isomer, unassigned) [Example 409, 5-(*S)-(2-Methyl-6-phenoxypyridin-3-yl)-4-oxo-N-((1S,3S)-3-propionamidocyclopentyl)-4,5-dihydro-3H-1-thia-3,5,8-triazaacenaphthylene-2-carboxamide] | > 1
24 | Cc1cc(Oc2ccccc2)ccc1N1C(=O)Nc2c(C(=O)N[C@H]3CC[C@H](O)CC3)sc3nccc1c23 [Example 86, N-((1R,4R)-4-Hydroxycyclohexyl)-5-(*R)-(2-methyl-4-phenoxyphenyl)-4-oxo-4,5-dihydro-3H-1-thia-3,5,8-triazaacenaphthylene-2-carboxamide] | 0.229
25 | N[C@H]1CC[C@@H](NC(=O)c2sc3nccc4c3c2NC(=O)N4c2ccc(Oc3ccccc3)cc2)C1 (racemic) [Example 96, N-(rac-(1,3-cis)-3-Aminocyclopentyl)-4-oxo-5-(4-phenoxyphenyl)-4,5-dihydro-3H-1-thia-3,5,8-triazaacenaphthylene-2-carboxamide] | 0.0776

Reference: US10934310B2, “Inhibitors of Bruton's tyrosine kinase and method of their use” (JANSSEN PHARMACEUTICA NV, priority 2015, dated 2021)
